# Results as given in US9364448B2, “Nitisinone for treatment of oculocutaneous/ocular albinism and for increasing pigmentation” (The United States of America, as represented by the …, priority 2010, dated 2016).
# Molecular target: T1, R77L mouse tyrosinase (Mus musculus, UniProt P11344, R77L)
# T1 construct: expressed in transfected cells; host or cells: CHO cells, pcDNA3.1
# T1 sequence (P11344 19-533 R77L): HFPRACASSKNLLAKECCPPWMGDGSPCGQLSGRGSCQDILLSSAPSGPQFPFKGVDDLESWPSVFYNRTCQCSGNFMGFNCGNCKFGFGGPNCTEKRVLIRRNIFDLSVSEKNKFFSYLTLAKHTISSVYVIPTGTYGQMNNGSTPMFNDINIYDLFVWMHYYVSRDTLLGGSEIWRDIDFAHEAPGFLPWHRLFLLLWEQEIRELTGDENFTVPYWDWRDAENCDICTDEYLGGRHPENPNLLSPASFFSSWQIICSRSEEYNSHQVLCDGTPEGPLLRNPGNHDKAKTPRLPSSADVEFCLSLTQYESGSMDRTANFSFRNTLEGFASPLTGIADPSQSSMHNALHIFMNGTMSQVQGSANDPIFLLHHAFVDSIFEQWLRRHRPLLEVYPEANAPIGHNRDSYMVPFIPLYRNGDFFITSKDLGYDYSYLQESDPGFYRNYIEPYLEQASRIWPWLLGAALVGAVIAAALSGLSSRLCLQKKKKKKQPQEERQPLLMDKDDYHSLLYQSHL
# Assay: Tyrosinase protein stability in CHO cells with cycloheximide, R77L
# Assay type: cell-based
# Conditions: 1 mM tyrosine
# Experimental: In Vitro Expression and Enzyme Activity. The expression construct of mouse Tyr was a kind gift of Dr. C. Olivares from the School of Medicine of the University of Murcia (Spain). This construct was prepared in the pcDNA3.1 expression vector (Invitrogen, Carlsbad, Calif.) using EcoRI/XbaI restriction sites and based on the mouse Tyr clone obtained as described previously in C. Olivares, et al., Biochem. J., 354:131 (2001). Constructs of tyrosinase gene mutant variants, with changes corresponding to missense mutations R77L and H420R in the mouse tyrosinase protein sequence, were created using standard methodologies (Mutagenex Inc., Piscataway, N.J.). […]
# Chinese hamster ovary cells (CHO) (generous gift from Dr. J. T. Wroblewski from the Pharmacology Department, Georgetown University Medical Center, Washington D.C.) were grown at a temperature of about 37° C. in DMEM media, in the presence of 10% fetal bovine serum, 1% penicillin and 4.5 g […] per 0.5 liter of media. […] The total protein content in protein lysates was determined spectrophotometrically as a 280/260 ratio. Protein expression was analyzed by Western blotting, and GAPDH was used as an internal loading control. For the analysis, Western blots were scanned, intensities of protein bands were determined, and ratios of band intensities for the wild type or mutant variants, to that of GAPDH were calculated. […]
smiles,measurement,value
N[C@@H](Cc1ccc(O)cc1)C(=O)O [tyrosine],Stabilization of R77L mutant tyrosinase protein relative to GAPDH,not statistically significant
